pEC50: −log10 of the molar value.
How the values were obtained:
[1] = test system: Primary fibroblasts from donors with Friedreich Ataxia (FRDA); assay: BSO Assay (cell viability of Friedreich Ataxia fibroblasts under BSO oxidative stress); type: cell-based; conditions: Homo sapiens, Fibroblast
Procedure: Primary fibroblasts were derived from donors with molecular diagnosis for Friedreich Ataxia (FRDA) and control donors with no mitochondrial disease. Cell lines were obtained from Coriell Cell Repositories (Camden, N.J.; catalog numbers GM04078, GM08402 and GM08399 respectively). All cell types were diagnosed on the molecular level for intronic GAA triplet repeat length of at least 400-450 repeats using a PCR-based method. Experiments were carried out as described in the literature (M. L. Jauslin et al., Human Mol. Genet., 2002, 11, 3055-3063): Cells were seeded in microtiter plates at a density of 4′000 cells per 100 μl in growth medium consisting of 25% (v/v) M199 EBS and 64% (v/v) MEM EBS without phenol red (Bioconcept, Allschwil, Switzerland) supplemented with 10% (v/v) fetal calf serum (PAA Laboratories, Linz, Austria), 100 U/ml penicillin, 100 μg/ml streptomycin (PAA Laboratories, Linz, Austria), 10 μg/ml insulin (Sigma, Buchs, Switzerland), 10 ng/ml EGF (Sigma, Buchs, Switzerland), 10 ng/ml bFGF (PreproTech, Rocky Hill, N.J.) and 2 mM glutamine (Sigma, Buchs, Switzerland). The cells were incubated in the presence of various test compounds for 24 h before addition of L-buthionine-(S,R)-sulfoximine (BSO) to a final concentration of 1 mM. Cell viability was measured after the first signs of toxicity appeared in the BSO-treated controls (typically after 16 to 48 h). The cells were stained for 60 min at room temperature in PBS with 1.2 μM calceinAM and 4 μM ethidium homodimer (Live/Dead assay, Molecular Probes, Eugene, Oreg.). Fluorescence intensity was measured with a Gemini Spectramax XS spectrofluorimeter (Molecular Devices, Sunnyvale, Calif.) using excitation and emission wavelengths of 485 nm and 525 nm respectively.

[2] = test system: utrophin expression in human DMD myotubes; assay: Utrophin Expression Assay in Human Myotubes; type: cell-based; conditions: 50 nM test compound
Procedure: Utrophin induction was determined by a method which was similar to a method of I. Courdier-Fruh et al., Neuromuscular Disord., 2002, 12, S95-S104.
Primary human muscle cell cultures were prepared from muscle biopsies taken during orthopedic surgery from Duchenne patients (provided by the Association Francaise contre les Myopathies). Cultures were prepared and maintained according to standard protocols. Induction of utrophin expression in human DMD myotubes was assayed at 50 nM or 500 nM of test compound added in differentiation medium. Normalized utrophin protein levels are determined after 5-6 d of incubation by cell-based ELISA with a mouse monoclonal antibody to the aminoterminal portion of utrophin (NCL-DRP2, Novocastra Laboratories). For calibration, the cell density and differentiation was determined by absorbance measurements of the total dehydrogenase enzyme activity in each well using the colorimetric CellTiter 96®AQ One Solution Reagent Proliferation Assay (Promega) according to the manufacturer's recommendation. […] Utrophin protein levels were determined immunologically with utrophin-specific primary antibody and with anappropriate peroxidase-coupled secondary antibody (Jackson ImmunoResearch Laboratories) using QuantaBlu™ Fluorogenic Peroxidase Substrate Kit (Pierce) for detection. […] The primary readout of this signal is presented in arbitrary units. […]

mdx mouse = mdx mouse model for Duchenne Muscular Dystrophy, longterm treatment; type: in vivo; conditions: mdx mice, 4 weeks; for adverse effects upon longterm treatment: 20 mg/kg every 2nd day
Procedure: The mdx mouse is a well established animal model for Duchenne Muscular Dystrophy (Bulfield G., Siller W. G., Wight P. A., Moore K. J., X chromosome-linked muscular dystrophy (mdx) in the mouse, Proc. Natl. Acad. Sci. USA., 1984, 81(4), 1189-1192). Selected compounds were tested in longterm treatments of mdx mice, according to the procedures described below.
Mouse strains: C57BL/10scsn and C57BL/10scsn mdx mouse strains were purchased at The Jackson Laboratory (ME, USA) and bred inhouse. Mouse males were sacrificed at the age of 3 or 7 weeks by CO2 asphyxiation.
Treatment: Compounds were dissolved in 50% PEG, 50% saline solution and applied by i.p. injection.
Histology: Tibialis anterior (TA), quadriceps (Quad), and diaphragm (Dia) muscles were collected and mounted on cork supports using gum tragacanth (Sigma-Aldrich, Germany). The samples were snap-frozen in melting isopentane and stored at −80° C. 12 μm thick cryosections of the mid-belly region of muscles were prepared. For staining, sections were air dried and fixed with 4% PFA in PBS for 5 minutes, washed 3 times with PBS and incubated over night at 4° C. in PBS containing 2 μg/ml Alexa Fluor™ 488 conjugated wheat-germ agglutinin (WGA-Alexa, Molecular Probes, Eugen, Oreg., USA) to stain membrane-bound and extracellular epitopes and 1 μg/ml 4′,6-diamidino-2-phenylindole (DAPI; Molecular Probes) to stain nuclei.
Image acquisition and analysis: Fluorescence microscopy images of both labels were acquired using a digital camera (ColorView II, Soft Imaging System, Müinster, Germany) coupled to a fluorescence microscope (Vanox S, Olympus, Tokyo, Japan). Combination of these two stainings to a composite image, assembling of several images to a complete image of the entire muscle cross-section and further semi-automated analysis was performed using the image analysis program AnalySIS (Soft Imaging System). Image analysis of 1200-2900 muscle fibers in each section was performed in three steps: 1) determination of the muscle fiber boundaries, 2) determination of the muscle fiber size, and 3) determination of the percentage of muscle fibers containing centralized nuclei. Six different geometrical parameters were tested for the determination of the muscle fiber size: (a) the “minimal feret” (the minimum distance of parallel tangents at opposing borders of the muscle fiber), (b) the “area”, (c) the “minimal inner diameter” (the minimum diameter through the center of the muscle fiber), (d) the “minimal diameter” (the minimum diameter of a muscle fiber for angles in the range 0° through 179° with step width 1°, (e) the “minimal outer diameter” (the minimum diameter through the muscle fiber from outer border to outer border), and (f) the “perimeter”. The variance coefficient of the muscle fiber size is defined as follows: variance coefficient=(standard deviation of the muscle fiber size/mean of the muscle fiber size of the section)*[…]. For statistical analysis of different variance coefficient values Mann-Whitney U test was used.
Selected Examples of the present invention were active in the mdx mouse model at 20 mg/kg every 2nd day, using 3 week old mice and a treatment period of 4 weeks (N=5-10).

[3] = 20 mg/kg every 2nd day i.p., diaphragm, vs vehicle-treated mdx mice
[4] = 20 mg/kg every 2nd day i.p., tibialis anterior, vs vehicle-treated mdx mice

Structure (SMILES) | pEC50 [1] | UTR Induction @50 nM [2] [%] | decrease in the variance coefficient of the muscle fiber size, Dia (mdx mouse; [3]) [%] | reduction of the percentage of centralized nuclei, Dia (mdx mouse; [3]) [%] | decrease in the variance coefficient of the muscle fiber size, Quad (mdx mouse; 20 mg/kg every 2nd day i.p., quadriceps, vs vehicle-treated mdx mice) [%] | reduction of the percentage of centralized nuclei, TA (mdx mouse; [4]) [%] | adverse effects upon longterm treatment (mdx mouse) | melting point [°C] | decrease in the variance coefficient of the muscle fiber size, TA (mdx mouse; [4]) [%]
CCNC(=O)C(=O)C(Cc1ccc(OC)cc1)NC(=O)C(NC(=O)C(CCc1ccccc1)NC(=O)CCc1cccs1)C(C)C (stereo not shown) [Example 520] | > 9.00 | 134 | 40 | 26 | 31 | 13 | No prominent adverse effects | 238 to 240 | 
CCNC(=O)C(=O)C(Cc1ccc(Cl)cc1)NC(=O)C(NC(=O)C(Cc1cccc2ccccc12)NC(=O)CCCCc1cccs1)C(C)C (stereo not shown) [Example 22] | 8.00 | 117 |  |  |  |  |  | 238 to 241 | 
CCNC(=O)C(=O)[C@H](Cc1ccc(Cl)cc1)NC(=O)[C@@H](NC(=O)[C@H](Cc1ccccc1)NC(=O)CCCCc1cccs1)C(C)C [Example 1] | 6.15 |  | 26 |  |  | 17 | No prominent adverse effects |  | 26

— US20080058324A1, “Alpha-Keto Carbonyl Calpain Inhibitors” (SANTHERA PHARMACEUTICALS (SCHWEIZ) AG, priority 2004, published 2008)
